# Source: US6958231B2, “Variants of Erwinia-type creatinase” (Roche Diagnostics Operations, Inc., priority 2001, dated 2005)
# Positions count from the first letter of the chain named.
# Experiments:
# [1] = molecular target: T1, Erwinia sp. (DSM 97-934) creatinase variant CTsd2, N130D, M203V, I278T, F395L, SEQ ID NO: 20 (Shinella sumterensis, UniProt A0AA50CTE0, F395L/I278T/M203V/N130D); assay: Km determination of creatinase variant with creatine (coupled enzymatic assay); type: biochemical; conditions: in words, CTsd2 vs wild type Erwinia creatinase
# T1 construct: variant CTsd2
# T1 sequence (A0AA50CTE0 1-404 N130D/M203V/I278T/F395L): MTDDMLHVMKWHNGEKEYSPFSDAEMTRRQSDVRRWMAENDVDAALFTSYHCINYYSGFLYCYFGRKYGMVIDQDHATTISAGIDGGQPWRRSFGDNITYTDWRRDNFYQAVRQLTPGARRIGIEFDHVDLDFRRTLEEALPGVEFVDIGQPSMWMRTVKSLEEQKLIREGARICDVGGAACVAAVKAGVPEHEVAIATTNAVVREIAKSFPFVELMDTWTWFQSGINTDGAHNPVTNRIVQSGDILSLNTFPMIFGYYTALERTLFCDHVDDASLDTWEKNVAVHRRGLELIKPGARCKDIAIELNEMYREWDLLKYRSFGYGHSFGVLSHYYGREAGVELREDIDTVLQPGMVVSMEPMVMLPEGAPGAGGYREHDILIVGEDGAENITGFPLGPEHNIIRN
# Procedure: (§1) The activity assay for creatinase and its variants was performed by using creatine as substrate and a coupled enzymatic reaction according to Guder, W. G., et al., J Clin Chem Clin Biochem 24 (1986) 889-902.
# (§2) The reaction mixture was set up by combining the following reagents:
# (§3) The assay for creatinase was carried out at 25° C. and at the wavelength of 546 nm for 10 min. ΔE was calculated from the measurement points of 6 to 10 min.
# (§4) For KM determination, creatinase activity was determined according to the assay procedure described in Example 3 using six different concentrations of creatine substrate: 90 mM, 45 mM, 22.5 mM, 11.3 mM, 5.6 miM and 2.8 mM.
# [2] = molecular target: T2, Erwinia sp. (DSM 97-934) creatinase variant CTsd7, F59W, N130D, M203V, I278T, F395L, SEQ ID NO: 22 (Shinella sumterensis, UniProt A0AA50CTE0, F395L/F59W/I278T/M203V/N130D); assay: as above; type: biochemical; conditions: in words, CTsd7 vs wild type Erwinia creatinase
# T2 construct: variant CTsd7
# T2 sequence (A0AA50CTE0 1-404 F59W/N130D/M203V/I278T/F395L): T1 sequence (A0AA50CTE0 1-404 N130D/M203V/I278T/F395L) with F59W
# Procedure: as §1, §2, §3, §4
# [3] = test system: creatinase from Pseudomonas putida; conditions: in words; cited from earlier work
smiles,measurement,setting,value
CN(CC(=O)O)C(=N)N [creatine],Km value compared to wild type,[1],much lower
same,Km value compared to wild type,[2],much lower
same,Km value,[3],rather high
